From publication PMC6753678, “Fueling Open Innovation for Malaria Transmission-Blocking Drugs: Hundreds of Molecules Targeting Early Parasite Mosquito Stages” (Frontiers in Microbiology, 2019)
Read-outs that look alike come from different tables or passages of the source.

Key:
[1] = system: 3D7-strain P. falciparum asexual parasites; experiment: P. falciparum asexual growth inhibition assay (Pf GIA); assay type: cell-based, Plasmodium falciparum; details: dose response confirmation; read-out: Pf asexual growth inhibition assays IC50
Method in brief: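 Steps: seed parasites (0.25% parasitemia, 2% hematocrit) onto compound dilutions; incubate 72 h at 37°C, 5% O2/5% CO2; freeze at −70°C and thaw; add LDH reaction mix, read A650 after 10 min. Percent growth inhibition derived from chloroquine and DMSO controls, averaged over three biological replicates.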

[2] = system: P. berghei ookinete development; details: for % inhibition, Replicate A / % inhibition, Replicate B: primary screen at 1 μM
HepG2 cells = experiment: HepG2 cytotoxicity assay; details: for Pb ODA (this manuscript) HepG2 cytoxicity: HepG2 cytotoxicity listed with the Pb ODA data set (this manuscript); for IC50: read-out: HepG2 cytotoxicity assay IC50, dose response confirmation
Method in brief: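 Percent inhibition derived from fluorescent viability readout, normalised to DMSO (negative) and 50 μM doxorubicin (positive). Compound incubation lasted 48 h at 37°C, 5% CO2, with 2,500 HepG2 cells/well in MEM plus 10% FBS and 1% NEAA.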

[3] = read-out: Pb ODA (this manuscript) IC50, P. berghei ookinete development assay, this manuscript
[4] = read-out: Pb Ookinete development assay IC50, dose response confirmation
[5] = read-out: Pb ODA IC50, this manuscript
[6] = HepG2 values of the three screens unified
[7] = unified HepG2 value across the three screens

Row | Compound | IC50 [1] [nM] | Is compound selective in assay? Pb ODA active? [2] | % inhibition, Replicate A [2] [%] | % inhibition, Replicate B [2] [%] | IC50 [2, 3] [nM] | IC50 [2, 4] [nM] | Pb ODA (this manuscript) HepG2 cytoxicity (HepG2 cells) [µM] | IC50 (HepG2 cells) [nM] | Is compound selective in assay? Pb ODA active? ([2]; 1: YES, 0: NO) | IC50 [2, 5] [nM] | HepG2 cytoxicity (Pb ODA, this manuscript) (HepG2 cells) [µM] | Unified cytotox (HepG2 cells; [6]) [µM] | Unified cytotox (HepG2 cells; [7]) [µM]
1 | CCOC(=O)NC1=NC(=N)N(OCCCOc2cc(Cl)c(Cl)cc2Cl)C(C)(C)N1 [TCMDC-131741] | < 0.2 | 0 (key: 1: YES; 0: NO) | 60.63 | 47.57 | 5080 | 5080 | 0.001 | 1 | – | – | – | – | –
2 | Cc1ccc(C2(CN3CCC(NC(=O)c4ccn[nH]4)CC3)CCCCC2)cc1 [TCMDC-124839] | 138 | 1 (key: 1: YES; 0: NO) | 81.24 | 59.00 | 970 | 968 | 43.15 | 43200 | – | – | – | – | –
3 | Cc1[nH]c(C)c(-c2ccc(Oc3ccccc3)cc2)c(=O)c1Br [TCMDC-137410] | 14 | – | 89.72 | 108.12 | – | 34 | – | 34700 | 1 (1: YES) | 33.8 | 34.67 | 34.67 | –
4 | NCC(NC(=O)c1ccc(-c2c[nH]c3ncccc23)s1)c1ccccc1.O=CO (stereo not shown) [TCMDC-134154] | 558 | – | 101.79 | 81.42 | – | 964 | – | 16200 | 1 (1: YES) | 960 | – | – | 16.22
5 | CCn1cc(C(=O)O)c(=O)c2cc(F)c(N3CCN(S(=O)(=O)c4ccc(N)cc4)CC3)cc21 [TCMDC-125809] | 1690 | – | 58.34 | 60.71 | – | 978 | – | 100000 | 1 (1: YES) | 980 | – | – | 100.00
6 | Cc1nc(/N=C(\N)NC(=O)NC2CCCCC2)nc2ccccc12 [TCMDC-123808] | 1.7 | 1 (key: 1: YES; 0: NO) | 57.73 | 102.93 | 1080 | 1080 | 35.48 | 35500 | – | – | – | – | –
7 | COc1ccc2nccc([C@@H](O)CN3CCC(NCc4cc5ccc(C#N)cc5[nH]4)CC3)c2c1.O=C(O)C(=O)O [TCMDC-140696] | 168 | – | 54.58 | 89.62 | – | 1880 | – | 1550 | 0 (0: NO) | 1880 | 1.55 | 1.55 | –
8 | Cc1[nH]c(C)c(-c2ccc(CCc3cccc(C(F)(F)F)c3)nc2)c(=O)c1Cl [TCMDC-136014] | 93 | – | 91.00 | 104.63 | – | 123 | – | 7080 | 1 (1: YES) | 120 | 7.08 | 7.08 | –
9 | CC(O)C(C)(CO)NCc1ccc2c3c(cccc13)-c1ccccc1-2.Cl (stereo not shown) [TCMDC-138117] | 490 | – | 18.85 | 67.10 | – | 608 | – | 4470 | 0 (0: NO) | 610 | – | – | 4.47
10 | Cc1ccc(Cn2c(N3CCC(C(=O)NCc4ccccn4)CC3)nc3ccccc32)cc1 [TCMDC-125442] | 469 | – | 48.51 | 58.27 | – | 1180 | – | 69200 | 1 (1: YES) | 1180 | – | – | 69.18
11 | C/C=C/COc1ccc(-c2c(C)[nH]c(C)c(Cl)c2=O)cc1 [TCMDC-134729] | 281 | – | 83.52 | 96.22 | – | 469 | – | 100000 | 1 (1: YES) | 470 | – | 100.00 | –
12 | COc1cc(OC)c(NC(=O)C2c3ccccc3C(=O)N(CC(C)C)C2c2cccs2)cc1Cl (stereo not shown) [TCMDC-124760] | 108 | – | 44.76 | 67.88 | – | 8610 | – | 100000 | 1 (1: YES) | 8610 | – | – | 100.00
13 | COc1ccc(C=NNc2nc(O)cc(-c3ccccc3)n2)cc1OC [TCMDC-124217] | 630 | – | 58.99 | 66.09 | – | 497 | – | 58200 | 1 (1: YES) | 500 | – | – | 58.21
14 | COc1cc(Nc2ccc3cc(S(=O)(=O)N4CCCCC4C)ccc3n2)cc(OC)c1OC (stereo not shown) [TCMDC-125163] | 4260 | – | 58.55 | 48.73 | – | 1060 | – | 24600 | 1 (1: YES) | 1060 | – | – | 24.55
15 | COc1ccc2nccc(N3CCC(NCCNCc4ccc5c(n4)NC(=O)CO5)C3)c2n1.Cl (stereo not shown) [TCMDC-134548] | 1.4 | – | 4.96 | 51.82 | – | 1620 | – | 42700 | 1 (1: YES) | 1630 | – | – | 42.66
16 | CC(=O)c1ccc(Nc2c(C(N)=O)cnc3cc(-c4c(C)noc4C)ccc23)cc1 [TCMDC-136058] | 1350 | 1 (key: 1: YES; 0: NO) | 86.92 | 80.92 | 3200 | 3200 | 100.00 | 100000 | – | – | – | – | –
17 | COc1ccc(Cn2ccc3c4c(N)nc(N)nc4ccc32)cc1 [TCMDC-139862] | < 0.2 | – | 43.74 | 74.79 | – | 315 | – | 11 | 0 (0: NO) | 320 | 0.011 | 0.011 | –
18 | C=CCn1ccc2c3c(N)nc(N)nc3ccc21 [TCMDC-137995] | 24 | – | 75.02 | 69.00 | – | 2480 | – | 1000 | 0 (0: NO) | 2480 | 1.00 | 1.00 | –
19 | CCOC(=O)C1=C(C)NC2=C(C(=O)C(C(=O)OC)C(C)C2)C1c1cc(Br)c(OCC)c(OC)c1 (stereo not shown) [TCMDC-125139] | 1420 | – | 3.38 | 50.55 | – | 9060 | – | 100000 | 1 (1: YES) | 9060 | – | – | 100.00
